The results in this text go back to ChEMBL document CHEMBL5053502, “Too Hot to Handle: Antibacterial Peptides Identified in Ghost Pepper” (J Nat Prod, 2021).

For orientation: IC50 means the point on the concentration scale where inhibition reaches its midpoint. What is called MBC is the smallest concentration meeting the test's criterion for killing.

The subject of one series is Escherichia coli. The experiment in a line: Antibacterial activity against Escherichia coli ATCC 25922 assessed as bacterial growth inhibition incubated for 4 hrs followed by resazurin addition and measured after 1 hr by fluorescence based analysis. Format: functional, organism-based.
Series [1] deals with Acinetobacter baumannii. The experiment in a line: Antibacterial activity against Acinetobacter baumannii 5075 assessed as bacterial growth inhibition incubated for 5 hrs by absorbance based analysis. The format is functional, organism-based. Conditions: Acinetobacter baumannii, 5075, 5 h.
Series [2] in a line: Hemolytic activity in human RBC assessed as hemolysis at 2.5 to 40 uM incubated for 1 hr by absorbance based analysis. The format is ADME, tissue-based. Conditions: erythrocyte, dose 2.5-40 µM.
In another series the test system is Pseudomonas aeruginosa. Put plainly: Antibacterial activity against Pseudomonas aeruginosa 1423 assessed as bacterial growth inhibition incubated for 7 hrs by absorbance based analysis. The conditions noted are these: Pseudomonas aeruginosa, 1423, 7 h.
The next series concerns Klebsiella pneumoniae. Put plainly: Antibacterial activity against Klebsiella pneumoniae VK148 assessed as bacterial growth inhibition incubated for 4 hrs followed by resazurin addition and measured after 1 hr by fluorescence based analysis.
For series [3], the system named is Cell membrane. The experiment in a line: Induction of outer membrane permeabilization in Escherichia coli ATCC 25922 assessed as increase in NPN uptake at 10 to 40 uM by NPN-dye based fluorescence analysis. Format: subcellular. The conditions noted are these: dose 10-40 µM.
The subject of series [4] is Acinetobacter baumannii. Put plainly: Bactericidal activity against Acinetobacter baumannii 5075 assessed as reduction in cell viability incubated for 24 hrs. The format is functional.
For series [5], the system named is Cell membrane. Put plainly: Induction of inner membrane permeabilization in Escherichia coli ATCC 25922 assessed as increase in absorbance at 420 nm in presence of ONPG by absorbance based assay. Format: subcellular.

≈ marks a conversion by molar mass, not a printed value. Calls of active or inactive are those of the source. Where a SMILES comes first, the peptide text is derived from it. Bridges are numbered along the chain shown (N, C = ends). [ ]: non-standard residue; d: D form. pGlu = O=C1CC[C@@H](C(=O)O)N1

On to `CC[C@H](C)[C@H](NC(=O)[C@H](CCCCN)NC(=O)CNC(=O)[C@H](CC(C)C)NC(=O)CNC(=O)[C@H](CCCCN)NC(=O)[C@@H](NC(=O)[C@H](CC(C)C)NC(=O)[C@H](Cc1cnc[nH]1)NC(=O)[C@H](CCCNC(=N)N)NC(=O)CNC(=O)[C@@H](NC(=O)[C@@H](N)CCCCN)C(C)C)C(C)C)C(=O)N[C@@H](Cc1ccccc1)C(=O)N[C@@H](CCCNC(=N)N)C(=O)N[C@@H](C)C(=O)NCC(=O)N[C@H](CCCCN)C(=O)N[C@@H](C(=O)N[C@H](C(=O)N[C@@H](Cc1ccccc1)C(=O)N[C@H]1CSSC[C@@H](C(=O)N[C@@H](CCCCN)C(=O)N[C@H](C(=O)N[C@H]2CSSC[C@@H](C(=O)N[C@@H](C)C(=O)O)NC(=O)[C@@H]3CSSC[C@H](NC(=O)[C@H](CC(C)C)NC(=O)CNC(=O)[C@H](CC(N)=O)NC2=O)C(=O)N[C@@H](CC(=O)O)C(=O)N[C@@H](Cc2ccc(O)cc2)C(=O)N3)[C@@H](C)O)NC(=O)[C@H]([C@@H](C)O)NC(=O)[C@H](CC(N)=O)NC1=O)[C@@H](C)CC)C(C)C`, for which the IC50 with Escherichia coli came out at 7.6 µM.

`CC[C@H](C)[C@@H]1NC(=O)[C@@H]2CSSC[C@H](NC(=O)[C@H](CCCCN)NC(=O)[C@H](C)NC(=O)[C@H](CCSC)NC(=O)[C@@H](NC(=O)[C@@H](NC(=O)[C@@H]3CCCN3C(=O)[C@H](CC(=O)O)NC(=O)[C@H](CC(C)C)NC(=O)[C@@H](NC(=O)[C@H](CCC(=O)O)NC(=O)[C@@H]3CCC(=O)N3)[C@@H](C)O)[C@@H](C)CC)CSSC[C@@H](C(=O)N[C@H](C(=O)N[C@@H](CC(C)C)C(=O)O)C(C)C)NC(=O)CNC(=O)[C@H](C)NC1=O)C(=O)N[C@@H](C(C)C)C(=O)N[C@@H](CC(C)C)C(=O)N[C@@H](CCCCN)C(=O)N[C@H]1CSSC[C@H](NC(=O)[C@H](Cc3c[nH]c4ccccc34)NC(=O)[C@H](C)NC(=O)[C@H](CCCCN)NC(=O)[C@H](CCCCN)NC(=O)CNC1=O)C(=O)N[C@@H](CC(C)C)C(=O)N[C@@H]([C@@H](C)O)C(=O)N[C@@H](CCCCN)C(=O)N2` ([pGlu]ETLDPICMAKCVLKCGKKAWCLTKCIAGCVL-OH; disulfide 8-30, 12-26, 16-22): the IC50 with Escherichia coli was 14.5 µM; in the series on Acinetobacter baumannii [1], 4 µM; with Pseudomonas aeruginosa it was 6.9 µM; in the series on Klebsiella pneumoniae, 13.2 µM. The Activity entry was “Non-Toxic” in series [2] and 100% in the series on Cell membrane [3]. Also, the MBC with Acinetobacter baumannii [4] worked out at 8.6 µM (≈ 29.7 µg/mL). The outcome in the series with Cell membrane [5] was Active.
